This assay concerns the target T1, Renin (Homo sapiens, UniProt P00797).
T1 sequence (P00797 whole entry): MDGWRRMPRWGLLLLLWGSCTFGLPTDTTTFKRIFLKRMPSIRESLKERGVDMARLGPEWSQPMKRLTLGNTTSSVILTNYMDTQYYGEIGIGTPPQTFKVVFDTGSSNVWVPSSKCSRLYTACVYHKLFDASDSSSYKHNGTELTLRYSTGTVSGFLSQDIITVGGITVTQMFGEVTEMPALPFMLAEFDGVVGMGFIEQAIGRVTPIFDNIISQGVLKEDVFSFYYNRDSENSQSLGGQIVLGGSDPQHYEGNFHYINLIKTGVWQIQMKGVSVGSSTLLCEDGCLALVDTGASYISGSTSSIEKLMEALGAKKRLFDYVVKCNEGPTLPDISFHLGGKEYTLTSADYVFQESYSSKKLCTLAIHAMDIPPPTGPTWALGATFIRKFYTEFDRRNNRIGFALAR
The assay is described as follows: In Vitro Renin IC50 Determinations (Tandem GFP FRET Assay). The following applies: pH 7.4; 22 °C. The text has this:
The renin assay utilized a tandem Green Flourescent Protein (tGFP) substrate that was hydrolyzed by human rennin. The tGFP substrate contained a nine amino acid (Ile-His-Pro-Phe-His-Leu-Val-Ile-His) recognition sequence for human renin flanked by two GPF proteins (W1B and Topaz). Human rennin cleaves the leucine-valine site of the substrate linker. Once cleaved, the emission ratio changes. The change was monitored by the ratio of 530 nm (topaz) over 475 nm (W1B) with the excitation set at 432 nm and the cutoff at 515 nm. The assay used a 384 well plate format that was read using a Gemini XS Fluorometric plate reader (Molecular Devices). Compounds were screened at a starting concentration of 10 uM and used a fourfold eleven-point dilution regiment.

The structures appear in SMILES notation.

What is called IC50 is the midpoint of a concentration-inhibition curve. `COc1ccccc1COCCCOc1ccc(N2C(=O)CNC[C@@H]2COc2ccc3c(c2)N(CCNC(C)=O)CCC3)cc1` displayed an IC50 of 0.0003 µM.

The compound `COc1ccccc1COCCCOc1ccc(N2CCNC[C@@H]2COc2ccc3ccccc3c2)cc1` [(2R)-1-(4-{3-[(2-methoxyphenyl)methoxy]propoxy}phenyl)-2-[(naphthalen-2-yloxy)methyl]piperazine] displayed an IC50 of 0.18 µM.

In the case of `COc1ccccc1COCCCOc1ccc(N2CCNC[C@@H]2COCc2ccc(-c3ccccc3)cc2)cc1` [(2R)-1-(4-{3-[(2-methoxyphenyl)methoxy]propoxy}phenyl)-2-{[(4-phenylphenyl)methoxy]methyl}piperazine], the IC50 is 1.02 µM.

With `COc1ccccc1COCCCOc1ccc(N2CCNC[C@@H]2COc2ccc3c(c2)N(CCNC(C)=O)CCC3)cc1` [N-[2-(7-{[(2R)-1-(4-{3-[(2-methoxyphenyl)methoxy]propoxy}phenyl)piperazin-2-yl]methoxy}-1,2,3,4-tetrahydroquinolin-1-yl)ethyl]acetamide], the IC50 was determined as 0.0005 µM.

Source of the values: BindingDB's records for doi:10.1016/j.bmc.2005.01.048 (Pfizer, 2005).
